Experimental findings from US11236046B2, “Substituted heterocyclic sulfonamide compounds useful as TRPA1 modulators” (Genentech, Inc., priority 2013, dated 2022) are described below.

Each structure is given as a SMILES string. pIC50: −log10 of the molar value.

System in one data set: not listed separately
Briefly: in vivo rat pharmacokinetic (PK) studies, plasma clearance.
Conditions: not given
For the compound `O=C(NCc1cc(-c2ccc(C(F)(F)F)nc2)ncn1)[C@@H]1C[C@@H](F)CN1S(=O)(=O)c1ccc(F)cc1` [(2S,4R)-4-fluoro-1-(4-fluorophenyl)sulfonyl-N-[[6-[6-(trifluoromethyl)-3-pyridyl]pyrimidin-4-yl]methyl]pyrrolidine-2-carboxamide], the “Rat PK Clp” value stood at 15 mL/min/kg.

Staying with this data set, now noted: compared with related compounds.
As for `O=C(NCc1cc(-c2ccc(C(F)(F)F)nc2)ncn1)[C@@H]1C[C@@H](F)CN1S(=O)(=O)c1ccc(F)cc1` [(2S,4R)-4-fluoro-1-(4-fluorophenyl)sulfonyl-N-[[6-[6-(trifluoromethyl)-3-pyridyl]pyrimidin-4-yl]methyl]pyrrolidine-2-carboxamide], the “stability in in vivo rat PK studies (clearance from the blood), in words” value is “highest stability (slowest clearance)”.

The same data set, now with this note: plasma, read-out: Rat PK Clp.
As to `O=C(NCc1cc(-c2cnc(C(F)(F)F)nc2)c(F)cn1)[C@@H]1C[C@@H](F)CN1S(=O)(=O)c1ccc(F)cc1` [(2S,4R)-4-fluoro-1-(4-fluorophenyl)sulfonyl-N-[[5-fluoro-4-[2-(trifluoromethyl)pyrimidin-5-yl]-2-pyridyl]methyl]pyrrolidine-2-carboxamide], the clearance was 5.9 mL/min/kg.

For `COc1nn(-c2ccc(C(F)(F)F)nc2)cc1CNC(=O)[C@@H]1C[C@@H](F)CN1S(=O)(=O)c1ccc(F)cc1` [(2S,4R)-4-fluoro-1-(4-fluorophenyl)sulfonyl-N-[[3-methoxy-1-[6-(trifluoromethyl)-3-pyridyl]pyrazol-4-yl]methyl]pyrrolidine-2-carboxamide], the clearance is 13 mL/min/kg.

Regarding `C[C@@]1(C(=O)NCc2cc(-c3ccc(C(F)(F)F)nc3)ncn2)C[C@@H](F)CN1S(=O)(=O)c1ccc(F)cc1` [(2S,4R)-4-fluoro-1-(4-fluorophenyl)sulfonyl-2-methyl-N-[[6-[6-(trifluoromethyl)-3-pyridyl]pyrimidin-4-yl]methyl]pyrrolidine-2-carboxamide], the clearance was 15 mL/min/kg.

On to `COc1nc(CNC(=O)[C@@H]2C[C@@H](F)CN2S(=O)(=O)c2ccc(F)cc2)cc(-c2ccc(C(F)(F)F)nc2)n1` [(2S,4R)-4-fluoro-1-(4-fluorophenyl)sulfonyl-N-[[2-methoxy-6-[6-(trifluoromethyl)-3-pyridyl]pyrimidin-4-yl]methyl]pyrrolidine-2-carboxamide], for which the clearance was determined as 16.5 mL/min/kg.

On to `C[C@@]1(F)C[C@@H](C(=O)NCc2cc(-c3ccc(C(F)(F)F)nc3)ncn2)N(S(=O)(=O)c2ccc(F)cc2)C1` [(2S,4R)-4-fluoro-1-(4-fluorophenyl)sulfonyl-4-methyl-N-[[6-[6-(trifluoromethyl)-3-pyridyl]pyrimidin-4-yl]methyl]pyrrolidine-2-carboxamide], for which the clearance was 11.3 mL/min/kg.

Consider `O=C(NCc1cc(-c2ccc(C(F)(F)F)nc2)ncn1)[C@@H]1CCCN1S(=O)(=O)c1ccc(F)cc1` [(2S)-1-(4-fluorophenyl)sulfonyl-N-[[6-[6-(trifluoromethyl)-3-pyridyl]pyrimidin-4-yl]methyl]pyrrolidine-2-carboxamide], for which the clearance is 98 mL/min/kg.

`O=C(NCc1cc(-c2ccc(C(F)(F)F)nc2)nc(-c2ccc(C(F)(F)F)nc2)c1)[C@@H]1C[C@@H](F)CN1S(=O)(=O)c1ccc(F)cc1` [(2S,4R)-N-[[2,6-bis[6-(trifluoromethyl)-3-pyridyl]-4-pyridyl]methyl]-4-fluoro-1-(4-fluorophenyl)sulfonyl-pyrrolidine-2-carboxamide]: the clearance is 9.1 mL/min/kg.

Consider `O=C(NCc1cc(-c2ccc(C(F)(F)F)nc2)ncn1)[C@@H]1[C@@H](F)CCN1S(=O)(=O)c1ccc(F)cc1` [(2R,3S)-3-fluoro-1-(4-fluorophenyl)sulfonyl-N-[[6-[6-(trifluoromethyl)-3-pyridyl]pyrimidin-4-yl]methyl]pyrrolidine-2-carboxamide], for which the clearance is 101 mL/min/kg.

Consider `N#C[C@@H]1C[C@@H](C(=O)NCc2cc(-c3ccc(C(F)(F)F)cc3)ncn2)N(S(=O)(=O)c2ccc(F)cc2)C1` [(2S,4R)-4-cyano-1-(4-fluorophenyl)sulfonyl-N-[[6-[4-(trifluoromethyl)phenyl]pyrimidin-4-yl]methyl]pyrrolidine-2-carboxamide], for which the clearance amounted to 7.6 mL/min/kg.

Regarding `O=C(NCc1cc(-c2ccc(OC(F)F)cc2)ncn1)[C@@H]1C[C@@H](F)CN1S(=O)(=O)c1ccc(F)cc1` [(2S,4R)-N-[[6-[4-(difluoromethoxy)phenyl]pyrimidin-4-yl]methyl]-4-fluoro-1-(4-fluorophenyl)sulfonyl-pyrrolidine-2-carboxamide], the clearance amounted to 13.2 mL/min/kg.

Regarding `O=C(NCc1cc(F)cc(-c2cnc(C(F)F)cn2)c1)[C@@H]1C[C@@H](F)CN1S(=O)(=O)c1ccc(F)cc1` [(2S,4R)-N-[[3-[5-(difluoromethyl)pyrazin-2-yl]-5-fluoro-phenyl]methyl] 4-fluoro-1-(4-fluorophenyl)sulfonyl-pyrrolidine-2-carboxamide], the clearance amounted to 9.9 mL/min/kg.

On to `O=C(NCc1cc(-c2ccc(C(F)(F)F)nc2)ncn1)[C@@H]1CC(F)(F)CN1S(=O)(=O)c1ccc(F)cc1` [(2S)-4,4-difluoro-1-(4-fluorophenyl)sulfonyl-N-[[6-[6-(trifluoromethyl)-3-pyridyl]pyrimidin-4-yl]methyl]pyrrolidine-2-carboxamide], for which the clearance worked out at 30 mL/min/kg.

The target in a further data set is human TRPA1 (Homo sapiens (Human), UniProt O75762). Briefly: IC50 determination on the human TRPA1 channel, calcium fluorescence (Hamamatsu FDSS plate reader). The format is cell-based. The note with it: CHO cells expressing human TRPA1; block of cinnamaldehyde induced calcium influx; 20 minutes compound incubation; Hill coefficient fixed to 1.5; read-out: hTRPA1 AUC IC50. The procedure: IC50s (effective concentration) of compounds on the human TRPA1 channel were determined using a Hamamatsu FDSS fluorescence plate reader. CHO cells expressing human TRPA1 were plated into 384-well plates, incubated overnight at 37 C, and loaded with BD calcium indicator dye for 1 hr at 37° C. followed by 15 minutes. at room temperature. The assay buffer was Hank's Balanced Salt Solution (HBSS) containing 20 mM HEPES (pH readjusted to 7.4) along with 0.02% BSA.
Chain of human TRPA1 (O75762 whole entry): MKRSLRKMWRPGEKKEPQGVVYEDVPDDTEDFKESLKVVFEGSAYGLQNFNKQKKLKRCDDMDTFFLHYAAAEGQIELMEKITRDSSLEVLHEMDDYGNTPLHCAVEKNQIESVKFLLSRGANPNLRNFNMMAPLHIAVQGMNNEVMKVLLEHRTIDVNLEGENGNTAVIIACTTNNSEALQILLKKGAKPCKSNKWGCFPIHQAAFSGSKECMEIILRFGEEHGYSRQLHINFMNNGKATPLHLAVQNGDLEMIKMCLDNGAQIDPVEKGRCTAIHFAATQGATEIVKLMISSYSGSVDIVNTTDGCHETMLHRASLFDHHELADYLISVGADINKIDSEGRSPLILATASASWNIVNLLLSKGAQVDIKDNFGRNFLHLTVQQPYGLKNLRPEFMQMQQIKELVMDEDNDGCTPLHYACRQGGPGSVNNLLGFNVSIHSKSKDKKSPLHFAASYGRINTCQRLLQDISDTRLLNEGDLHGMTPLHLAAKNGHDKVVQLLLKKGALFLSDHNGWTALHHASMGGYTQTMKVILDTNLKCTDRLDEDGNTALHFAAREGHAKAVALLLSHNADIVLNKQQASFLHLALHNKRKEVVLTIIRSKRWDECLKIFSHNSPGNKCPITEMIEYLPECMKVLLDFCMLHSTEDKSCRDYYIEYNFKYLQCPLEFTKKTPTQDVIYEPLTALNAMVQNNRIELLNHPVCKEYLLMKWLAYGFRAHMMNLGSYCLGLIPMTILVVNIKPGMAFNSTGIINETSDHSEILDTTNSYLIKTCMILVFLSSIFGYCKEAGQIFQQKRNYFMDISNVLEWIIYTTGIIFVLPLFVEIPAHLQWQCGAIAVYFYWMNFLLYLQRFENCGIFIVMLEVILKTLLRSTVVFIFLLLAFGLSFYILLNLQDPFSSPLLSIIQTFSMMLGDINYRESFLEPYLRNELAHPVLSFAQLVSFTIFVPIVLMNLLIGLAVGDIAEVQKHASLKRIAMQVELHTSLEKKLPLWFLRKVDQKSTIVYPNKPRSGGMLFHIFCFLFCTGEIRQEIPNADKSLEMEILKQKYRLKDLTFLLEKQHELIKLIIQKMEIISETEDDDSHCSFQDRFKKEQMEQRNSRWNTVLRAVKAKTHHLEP
Following dye load and plate cool down, compounds were added to the cells using the FDSS while monitoring fluorescence to determine whether any of the test compounds have TRPA1 agonist activity. Plates were then incubated with compound for 20 minutes at room temperature prior to adding agonist. Following this incubation, […] cinnamaldehyde was added to all wells of the plate and block of this cinnamaldehyde induced calcium influx was measured.
Fixing the Hill coefficient will generally reduce variability of the IC50 determination. The IC50s were examined by eye to make sure the MIN and MAX points were set correctly prior to validation of the results.
Regarding `C[C@@]1(C(=O)NCc2cc(-c3ccc(C(F)(F)F)nc3)ncn2)C[C@@H](F)CN1S(=O)(=O)c1ccc(F)cc1` (single isomer, unassigned) [Example 19], the pIC50 is 7.80.

With `O=C(NCc1cc(N2CCC(C(F)(F)F)CC2)ncn1)[C@@H]1C[C@@H](F)CN1S(=O)(=O)c1ccc(F)cc1` [Example 11, (2S,4R)-4-fluoro-1-(4-fluorophenylsulfonyl)-N-((6-(4-(trifluoromethyl)piperidin-1-yl)pyrimidin-4-yl)methyl)pyrrolidine-2-carboxamide], the pIC50 is 6.36.

In the case of `O=C(NCc1cc(-c2ccc(C(F)(F)F)nc2)ncn1)[C@]1(C(F)F)CCCN1S(=O)(=O)c1ccc(F)cc1` [Example 31, (S)-2-(difluoromethyl)-1-(4-fluorophenylsulfonyl)-N-((6-(6-(trifluoromethyl)pyridin-3-yl)pyrimidin-4-yl)methyl)pyrrolidine-2-carboxamide], the pIC50 was 7.54.

Take `O=C(NCc1cc(-c2ccc(C(F)(F)F)nc2)ncc1F)[C@@H]1C[C@@H](F)CN1S(=O)(=O)c1ccc(F)cc1` [Example 8, (2S,4R)-4-fluoro-N-((5-fluoro-6′-(trifluoromethyl)-2,3′-bipyridin-4-yl)methyl)-1-(4-fluorophenylsulfonyl)pyrrolidine-2-carboxamide]: the pIC50 is 7.77.

`O=C(NCc1cc(-c2ccc(C(F)(F)F)nc2)ncn1)[C@@H]1C[C@@H](F)CN1S(=O)(=O)c1ccc(Cl)s1` [Example 24, (2S,4R)-1-(5-chlorothiophen-2-ylsulfonyl)-4-fluoro-N-((6-(6-(trifluoromethyl)pyridin-3-yl)pyrimidin-4-yl)methyl)pyrrolidine-2-carboxamide]: the pIC50 was 7.57.

With `C[C@@]1(C(=O)NCc2cc(-c3ccc(C(F)(F)F)cn3)ncn2)CCCN1S(=O)(=O)c1ccc(F)cc1` [Example 14, (S)-1-(4-fluorophenylsulfonyl)-2-methyl-N-((6-(5-(trifluoromethyl)pyridin-2-yl)pyrimidin-4-yl)methyl)pyrrolidine-2-carboxamide], the negative logarithm of the IC50 (pIC50) is 6.57.

Take `Cc1nc(CNC(=O)[C@@H]2C[C@@H](F)CN2S(=O)(=O)c2ccc(F)cc2)cc(-c2ccc(C(F)(F)F)nc2)n1` [Example 22, (2S,4R)-4-fluoro-1-(4-fluorophenylsulfonyl)-N-((2-methyl-6-(6-(trifluoromethyl)pyridin-3-yl)pyrimidin-4-yl)methyl)pyrrolidine-2-carboxamide]: the pIC50 is 7.06.

Consider `O=C(NCc1cc(-c2ccc(OC(F)(F)F)cc2)ncn1)[C@@H]1C[C@@H](F)CN1S(=O)(=O)c1ccc(F)cc1` [Example 21, (2S,4R)-4-fluoro-1-(4-fluorophenylsulfonyl)-N-((6-(4-(trifluoromethoxy)phenyl)pyrimidin-4-yl)methyl)pyrrolidine-2-carboxamide], for which the pIC50 is 7.68.

In the case of `O=C(NCc1cc(-c2ccc(C(F)(F)F)nc2)ncn1)[C@@H]1[C@H]2CC[C@H](C2)N1S(=O)(=O)c1ccc(F)cc1` [Example 34, (1R,3S,4S)-2-(4-fluorophenylsulfonyl)-N-((6-(6-(trifluoromethyl)pyridin-3-yl)pyrimidin-4-yl)methyl)-2-azabicyclo[2.2.1]heptane-3-carboxamide], the pIC50 is 7.40.

Take `C[C@@]1(C(=O)NCc2cc(-c3ccc(C(F)(F)F)nc3)ncn2)CCCN1S(=O)(=O)c1ccc(F)cc1` [Example 1, (S)-1-(4-fluorophenylsulfonyl)-2-methyl-N-((6-(6-(trifluoromethyl)pyridin-3-yl)pyrimidin-4-yl)methyl)pyrrolidine-2-carboxamide]: the pIC50 is 7.29.
